Data as given in US20110104121A1, “Female Reproductive Tract and Anal Prophylaxes” (priority 2008, published 2011).

Tests used:
[1] = tested on: uterine epithelial cells; assay: Trappin-2/Elafin production by uterine epithelial cells on Poly(I:C) stimulation; assay type: cell-based, human; settings: 24 hour conditioned media, ELISA
Method: (§1) Materials & Methods. A total of 11 different patients were used to obtain epithelial cells from the uterus, Fallopian tube, endocervix and ectocervix. Epithelial cells were isolated according to known methods (Fahey, et al. (1999) Am. J. Reprod. Immunol. 42(1):49-57; Fahey et al. (1998) Immunol. Invest. 27(3):167-80). Briefly, tissues were rinsed with 1×PBS and minced into 1-2 mm fragments prior to subjecting them to enzymatic digestion for 2 hours at 37° C. The enzyme mixture contained 3.4 mg/ml pancreatin (Invitrogen Life Technologies, Carlsbad, Calif.), 0.1 mg/ml hyaluronidase (Worthington Biochemical, Lakewood, N.J.), 1.6 mg/ml collagenase (Worthington Biochemical), and 2 mg/ml D-glucose, in 1×HBSS (Invitrogen Life Technologies). […] Epithelial cell sheets retained on the filter were recovered by rinsing and backwashing, centrifuged at 500×g for 10 minutes and analyzed for cell number and viability. […]
(§2) Concentrations of Trappin-2/Elafin in the apical and basolateral supernatants from primary FRT epithelial cells and CVL from HIV(+) and (−) women were determined with an ELISA Duoset kit (R&D Systems, Minneapolis, Minn., USA) according to the manufacturer's protocol. […] Amounts of Trappin-2/Elafin were measured based on a standard curve after OD measurements at 450 nm on an ELISA reader (Dynex, Chantilly, Va., USA). […]

[2] = tested on: Fallopian tube, endocervix, and ectocervix epithelial cells; assay: Trappin-2/Elafin production by Fallopian tube, endocervix and ectocervix epithelial cells on Poly(I:C) stimulation; assay type: cell-based, human; settings: 4-6 patients per compartment
Method: as §1, §2

[3] = tested on: uterine epithelial cells (UTEC); assay: CCL20/MIP3α production by uterine (endometrium) epithelial cells on TLR agonist treatment; assay type: cell-based, human
Excerpt: (§3) Materials and Methods. Source of Tissues Human uterine and Fallopian tube tissues were obtained from women undergoing hysterectomy. Tissues used in this study were collected from patients with benign conditions such as fibroids distal from the site of pathology. The sections were examined by a pathologist and proclaimed to be free of pathological lesions. A total of nine different patients were used to obtain uterine epithelial cells and a total of seven patients were used to obtain Fallopian tube epithelial cells.
(§4) Epithelial cells were isolated according to known methods (Fahey, et al. (1999) supra; Fahey, et al. (1998) supra) as described herein.
(§5) To establish a cell culture system of polarized human uterine epithelial cells (UTEC) and Fallopian tube epithelial cells (FTEC) with both apical and basolateral compartments, primary human UTEC and FTEC were cultured in Human Extracellular Matrix (Becton Dickenson, Franklin Lakes, N.J., USA)-coated Falcon cell culture inserts in 24-well culture plates (Fisher Scientific, Pittsburgh, Pa., USA). For these experiments, apical and basolateral compartments contained 300 and 850 μL of complete medium, respectively. The medium was changed every 2 days. […]
(§6) Concentrations of CCL20/MIP3α in the apical and basolateral supernatants from human primary UTEC and FTEC were determined with an ELISA Duoset kit (R&D Systems, Minneapolis, Minn., USA) according to the manufacturer's protocol. Amounts of CCL20/MIP3α were quantified based on a standard curve after OD measurements at 450 nm on an ELISA reader (Dynex, Chantilly, Va., USA).
(§7) Real-time RT-PCR was carried with a two-step protocol as described herein. […] As indicated herein, the software calculates the threshold cycle (Ct) for each reaction which was used to quantify the amount of starting template in the reaction.

[4] = tested on: Fallopian tube epithelial cells (FTEC); assay: CCL20/MIP3α production by Fallopian tube epithelial cells on Poly(I:C) treatment; assay type: cell-based, human
Excerpt: as §3, §4, §5, §6, §7

[5] = tested on: HIV-1 X4/T-tropic IIIB; assay: TZM-bl infectivity assay, HIV-1 IIIB; assay type: cell-based; settings: for post-infection inhibition, IIIB: 1 ng/ml
Method: (§8) The TZM indicator cell line is a HeLa cell derivative that expresses high levels of CD4, CCR5 and CXCR4 (Wei, et al. (2002) Antimicrob. Agents Chemother. 46(6):1896-905). The cells contain HIV long terminal repeat (LTR)-driven β-galactosidase and luciferase reporter cassettes that are activated by HIV tat expression.
(§9) TZM cells were seeded at 2×10^4 cells per well in a 96-well microtiter plate and allowed to adhere overnight at 37° C. Varying doses of recombinant human Trappin-2/Elafin (Peprotech, Rocky Hill, N.J.) were incubated with HIV-1 IIIB and BaL at multiplicity of infection (MOI) 1 for 1 hour at 37° C. in a final volume of 100 μl. Following incubation, the media was aspirated from TZM cells and the virus plus Trappin-2/Elafin was added to the cells along with 100 μl of TZM media. Luciferase activity was measured after 48 hours at 37° C. with 5% CO2 in a humidified incubator. Briefly, the supernatants were aspirated, and the cells were lysed with a BETA GLO luciferase assay substrate. Light intensity of each well was measured using a luminometer. Uninfected cells were used to determine background luminescence. All infectivity assays were performed in quadruplicate.
(§10) Other experiments were conducted in order to determine whether the inhibitory effects of Trappin-2/Elafin were at the cell surface level such as the blocking of a co-receptor. For these experiments, varying doses of Trappin-2/Elafin were directly added to TZM cells and incubated for 1 hour at 37° C. prior to washing with 1×PBS and addition of IIIB or BaL viruses. In additional experiments to determine possible post-infection mechanisms of inhibition by Trappin-2/Elafin, TZM cells were infected with HIV-1 IIIB and BaL at MOI 1 and were washed at 6 hours and 24 hours post-infection followed by the addition of 10 ng/ml rTrappin-2/Elafin. Assays were developed at 48 hours by addition of the BETA-GLO substrate and measuring relative light units using a luminometer.
(§11) Since HIV-1 is an important sexually transmitted pathogen, the activity of recombinant Trappin-2/Elaf in (rTrappin-2/Elafin) was evaluated against HIV-1 X4/T-tropic IIIB and R5/M-tropic BaL. HIV-1 IIIB and BaL were incubated with rTrappin-2/Elafin at 0.01, 0.1, 1, and 10 ng/ml for 1 hour at 37° C. TZM-bl indicator cells were plated the previous day at 25,000 cells per well and grown to 70-80% confluence. The virus-Trappin-2/Elafin mixture was added to the TZM cells and incubated for 48 hours at 37° C. At the end of the incubation period, BETA-GLO substrate was added to the cells and viral infection was quantified using a luminometer, expressed as relative light units (RLU). The data was expressed as percent of control with virus-only control set at 100%. […] Therefore, the concentrations of Trappin-2/Elafin showing anti-HIV-1 activity were in the range of physiological levels of this molecule that were secreted by the FRT epithelial cells. Since the inhibitory activity was observed as a result of pre-incubation of HIV-1 and rTrappin-2/Elafin, it is contemplated that the effect of Trappin-2/Elafin on viral infection was direct. […]
(§12) Laboratory-adapted viral strains HIV-1 IIIB (×4) and BaL (R5) were obtained and virus stocks were propagated in PHA-stimulated human PBMC and stored frozen at −80° C. Virus stocks produced in PBMC of molecularly cloned HIV-1 NL4.3 (×4; lab-adapted) and YU-2.c (R5; directly cloned without culture) were obtained. Virus titers were determined on TZM-bl cells as described herein. Also used was a PBMC-derived virus stock of pCH077.c, a recently generated Clade B infectious molecular clone matching the nucleotide sequence determined to be the transmitted/founder virus sequence of CHAVI subject 700010077. […]

[6] = tested on: HIV-1 R5/M-tropic BaL; assay: TZM-bl infectivity assay, HIV-1 BaL; assay type: cell-based
Method: as §8, §9, §10, §11, §12

[7] = tested on: TZM cells; assay type: cell-based, human
Method: Viability of TZM cells upon treatment with Trappin-2/Elafin and CVL was quantified using the […] 96° AQueous One Solution Cell Proliferation Assay (Promega) according to manufacturer's instructions. Briefly, reagent was added directly to cell cultures and incubated for 1 hour at 37° C. followed by reading the plate in a plate reader at OD 490 nm.

[8] = cells pre-incubated with 0.1 and 1 ng/ml 1 hour, washed
[9] = virus pre-incubated 1 hour with 0.01, 0.1, 1, 10 ng/ml, 48 hours

| Substance | Trappin-2/Elafin secretion by UT epithelial cells [1] | fraction of patients upregulating Trappin-2/Elafin [2] | CCL20/MIP3α mRNA upregulation ([3]; Poly(I:C) 25 μg/mL, 24 hours, five out of five patients) | endometrium CCL20/MIP3α secretion ([3]; Poly(I:C) 24 hours, ELISA) | CCL20/MIP3α level secreted by endometrium cells ([3]; stimulated with Poly(I:C), constitutive 0.2-7 ng/mL) [ng/mL] | samples with CCL20/MIP3α mRNA upregulation ([4]; Poly(I:C) 24 hours) | Fallopian tube CCL20/MIP3α secretion ([4]; Poly(I:C) 24 hours, ELISA) | CCL20/MIP3α level secreted by Fallopian tube cells ([4]; stimulated with Poly(I:C), constitutive 5-12 ng/mL) [ng/mL] | post-infection inhibition, IIIB ([5]; added 6 hours post-infection) | post-infection inhibition, IIIB ([5]; added 24 hours post-infection) | infectivity of TZM cells by IIIB after pre-exposure of the cells [5, 8] | inhibition of IIIB [5, 9] [%] | post-infection inhibition, BaL ([6]; added 6 and 24 hours post-infection, 1 ng/ml) | infectivity of TZM cells by BaL after pre-exposure of the cells [6, 8] | inhibition of BaL [6, 9] [%] | toxic effect on the TZM cells (viability) [7] |
| --- | --- | --- | --- | --- | --- | --- | --- | --- | --- | --- | --- | --- | --- | --- | --- | --- |
| Poly(I:C) | significantly increased | approximately ⅓ typically responded | greater than two-fold | significant increase | 5 to 12 | two out of four samples | significant increase | 13 to 20 |  |  |  |  |  |  |  |  |
| rTrappin-2/Elafin: recombinant human Trappin-2/Elafin (Peprotech), serine protease inhibitor (AQEPVKGPVSTKPGSCPIILIRCAMLNPPNRCLKDTDCPGIKKCCEGSCGMACFVPQ; UniProt P19957 61-117, looked up) |  |  |  |  |  |  |  |  | no significant post-infection inhibition | slight inhibition | no effect | ~80 | no significant post-infection inhibition | no effect | ~60 | not due to toxic effect |
